US8426202B2, “Cell culture medium” (Cellca GmbH, priority 2005, dated 2013)
Where “and” joins values, the source holds several entries; their conditions need not be identical. Equal values may be shown once. Read-outs that look alike come from different tables or passages of the source.

Assays:
[1] = test system: CHO cell line that expresses an antibody; assay: Batch experiment with the substances according to the invention (Example 1); type: cell-based, Chinese hamster; details: batch mode, substance 0.5-1 g/l, basal medium glucose 4.7 g/l, glutamine […]
[2] = test system: CHO cell line that expresses an antibody; assay: Fed-batch experiment with the substances according to the invention (Example 2, Table 2); type: cell-based, Chinese hamster; parameters: Viabil.: concentration or dose not given beside the values
Text: Feed took place at regular intervals.

[3] = test system: CHO cell line that expresses an antibody; details: fed-batch; substance 1 g/l; supernatant, ELISA; absolute value of the control set at 100%
Method: A CHO cell line that expresses an antibody was used for the experiments. The product concentration (antibody concentration) in the cell supernatant was determined by ELISA.
From selected samples, the product concentration (antibody concentration) in the supernatant was determined by ELISA (Table 3)

[4] = test system: CHO cell line that expresses an antibody; details: fed-batch, glutamine-free basal and feed media, substance 0.5-1 g/l
Text: (§1) A CHO cell line that expresses an antibody was used for the experiments.
This is a serum-free, protein-free nutrient medium. It is a ready-made, sterile-filtered nutrient medium.
After 1-4 days the cells were supplemented with a feed medium, i.e. the process was switched to fed-batch mode. Feed took place at regular intervals. In fed-batch experiments, a protein-free and serum-free feed medium from the company HyQ (R05.2 supplement, Cat. No.: SH30584.04, Lot No.: APF21457G) was used.
All substances (chemicals) used according to the invention were obtained from the company Sigma and stock solutions were prepared from them. From the stock solutions, the substances were put at the desired final concentration in culture tubes. The various culture tubes prepared in this way were finally inoculated with the antibody-producing CHO-clone at a target inoculation cell concentration (1-3×10^5/ml). For this, the corresponding amount of inoculum cells was calculated and the required amount of inoculum cell suspension was centrifuged. […] In this way the desired inoculation cell concentration was adjusted in the cell suspension being investigated. The cell suspension thus prepared was proportioned in the culture tubes, which were provided with the substances according to the invention beforehand. The culture tubes were incubated at 37° C., and 8% CO2 atmosphere, with shaking. The culture tubes were cultivated for 8-11 days in the batch mode or in the fed-batch mode. Samples for offline measurement of the variables were taken from the culture vessels at regular intervals, for example daily or on every third day. The metabolic variables and cell concentrations of the samples were measured. Cell concentration and cell vitality were measured with a CeDex instrument. The metabolic variables (glucose, lactate, glutamine and ammonium) were determined with an analyzer (BioProfile 100).
(§2) The following final concentrations of the substances according to the invention were established in a nutrient medium after inoculation:
The substances according to the invention were tested under fed-batch conditions. […] The feed medium used was from the company HyQ (R05.2 supplement, Cat. No.: SH30584.04, Lot No.: APF21457G). The feed medium was glutamine-free (Table 4).

[5] = test system: CHO cell line that expresses an antibody; details: fed-batch, basal medium 4 mM glutamine, feed with 3 g/l Ala-Gln and 3 g/l Gly-Gln, substance 0.5-1 g/l
Method: as §1
The experiments were carried out either in batch mode or in fed-batch mode. When the process was carried out in fed-batch mode, the process was first started in batch mode in the above-mentioned basal medium and cells were cultivated in this manner for 1-4 days. After 1-4 days the cells were supplemented with a feed medium, i.e. the process was switched to fed-batch mode. Feed took place at regular intervals. In fed-batch experiments, a protein-free and serum-free feed medium from the company HyQ (R05.2 supplement, Cat. No.: SH30584.04, Lot No.: APF21457G) was used.
From the stock solutions, the substances were put at the desired final concentration in culture tubes. The various culture tubes prepared in this way were finally inoculated with the antibody-producing CHO-clone at a target inoculation cell concentration (1-3×10^5/ml). For this, the corresponding amount of inoculum cells was calculated and the required amount of inoculum cell suspension was centrifuged. […] In this way the desired inoculation cell concentration was adjusted in the cell suspension being investigated. The cell suspension thus prepared was proportioned in the culture tubes, which were provided with the substances according to the invention beforehand. The culture tubes were incubated at 37° C., and 8% CO2 atmosphere, with shaking. The culture tubes were cultivated for 8-11 days in the batch mode or in the fed-batch mode. Samples for offline measurement of the variables were taken from the culture vessels at regular intervals, for example daily or on every third day. The metabolic variables and cell concentrations of the samples were measured. Cell concentration and cell vitality were measured with a CeDex instrument. The metabolic variables (glucose, lactate, glutamine and ammonium) were determined with an analyzer (BioProfile 100).
as §2
The substances according to the invention were tested under fed-batch conditions. […] The feed medium used was from the company HyQ (R05.2 supplement, Cat. No.: SH30584.04, Lot No.: APF21457G). 3 g/l alanyl-glutamine (Ala-Gin) and 3 g/l glycyl-glutamine (Gly-Gln) were added to the feed medium.

SMILES: CC(O)C(=O)[O-].[Na+] (stereo not shown) [Sodium lactate]
- Gln ([1]; day 0): 1.53 mM
- Glucose ([1]; day 0): 4.69 g/L
- Lactate ([1]; day 0): 1 g/L
- NH4 ([1]; day 0): 1.22 mM
- Specific Glutamin consumption (Gln/VCD) ([1]; day 0): 1.49
- Specific ammonia production (NH4/VCD) ([1]; day 0): 1.18
- Specific glucose consumption (Gluc/VCD) ([1]; day 0): 4.55
- Specific lactate production (Lac/VCD) ([1]; day 0): 0.97
- Total Cell Density TCD ([1]; day 0): 1.07 E5/ml
- Viabil. ([1]; day 0): 96%
- Viable Cell Density (VCD) ([1]; day 0): 1.03 E5/ml
- Gln ([1]; day 3): 1.12 mM
- Glucose ([1]; day 3): 4.44 g/L
- Lactate ([1]; day 3): 1.15 g/L
- NH4 ([1]; day 3): 1.65 mM
- Specific Glutamin consumption (Gln/VCD) ([1]; day 3): 0.19
- Specific ammonia production (NH4/VCD) ([1]; day 3): 0.28
- Specific glucose consumption (Gluc/VCD) ([1]; day 3): 0.74
- Specific lactate production (Lac/VCD) ([1]; day 3): 0.19
- Total Cell Density TCD ([1]; day 3): 6 E5/ml
- Viabil. ([1]; day 3): 100%
- Viable Cell Density (VCD) ([1]; day 3): 6 E5/ml
- Gln ([1]; day 6): 0.31 mM
- Glucose ([1]; day 6): 2.82 g/L
- Lactate ([1]; day 6): 1.49 g/L
- NH4 ([1]; day 6): 2.07 mM
- Specific Glutamin consumption (Gln/VCD) ([1]; day 6): 0.01
- Specific ammonia production (NH4/VCD) ([1]; day 6): 0.05
- Specific glucose consumption (Gluc/VCD) ([1]; day 6): 0.07
- Specific lactate production (Lac/VCD) ([1]; day 6): 0.04
- Total Cell Density TCD ([1]; day 6): 41 E5/ml
- Viabil. ([1]; day 6): 99%
- Viable Cell Density (VCD) ([1]; day 6): 40.6 E5/ml
- Gln ([1]; day 8): 0.35 mM
- Glucose ([1]; day 8): 1.79 g/L
- Lactate ([1]; day 8): 1.47 g/L
- NH4 ([1]; day 8): 2.63 mM
- Specific Glutamin consumption (Gln/VCD) ([1]; day 8): 0.02
- Specific ammonia production (NH4/VCD) ([1]; day 8): 0.12
- Specific glucose consumption (Gluc/VCD) ([1]; day 8): 0.08
- Specific lactate production (Lac/VCD) ([1]; day 8): 0.07
- Total Cell Density TCD ([1]; day 8): 23.7 E5/ml
- Viabil. ([1]; day 8): 90%
- Viable Cell Density (VCD) ([1]; day 8): 21.3 E5/ml
- Gln ([1]; day 11): 0.5 mM
- Glucose ([1]; day 11): 0.55 g/L
- Lactate ([1]; day 11): 1.04 g/L
- NH4 ([1]; day 11): 3.12 mM
- Specific Glutamin consumption (Gln/VCD) ([1]; day 11): 0.04
- Specific ammonia production (NH4/VCD) ([1]; day 11): 0.27
- Specific glucose consumption (Gluc/VCD) ([1]; day 11): 0.05
- Specific lactate production (Lac/VCD) ([1]; day 11): 0.09
- Total Cell Density TCD ([1]; day 11): 24.5 E5/ml
- Viabil. ([1]; day 11): 47%
- Viable Cell Density (VCD) ([1]; day 11): 11.4 E5/ml
- Total Cell Density TCD ([2]; day 0, fed-batch): 1.5 E5/ml
- Viabil. ([2]; day 0, fed-batch): 91%
- Viable Cell Density (VCD) ([2]; day 0, fed-batch): 1.37 E5/ml
- Total Cell Density TCD ([2]; day 2, fed-batch): 4.6 E5/ml and 4 E5/ml
- Viabil. ([2]; day 2, fed-batch): 98% and 95%
- Viable Cell Density (VCD) ([2]; day 2, fed-batch): 4.5 E5/ml and 3.8 E5/ml
- Total Cell Density TCD ([2]; day 5, fed-batch): 13.1 E5/ml and 14.3 E5/ml
- Viabil. ([2]; day 5, fed-batch): 98%
- Viable Cell Density (VCD) ([2]; day 5, fed-batch): 12.8 E5/ml and 14 E5/ml
- Total Cell Density TCD ([2]; day 8, fed-batch): 52.4 E5/ml and 54.7 E5/ml
- Viabil. ([2]; day 8, fed-batch): 96% and 95%
- Viable Cell Density (VCD) ([2]; day 8, fed-batch): 50.2 E5/ml and 52 E5/ml
- Antibody concentration [3]: 124%
- Sp. Gluc cons. ([4]; day 0): 93
- Sp. NH4 prod ([4]; day 0): 98 % of control
- TCD ([4]; day 0): 100 % of control
- VCD ([4]; day 0): 100 % of control
- Viabil. ([4]; day 0): 94%
- Sp. Gluc cons. ([4]; day 3): 66
- Sp. Lactate prod. ([4]; day 3): 72 % of control
- Sp. NH4 prod ([4]; day 3): 63 % of control
- TCD ([4]; day 3): 140 % of control
- VCD ([4]; day 3): 148 % of control
- Viabil. ([4]; day 3): 94%
- Sp. Gluc cons. ([4]; day 5): 74
- Sp. Lactate prod. ([4]; day 5): 66 % of control
- Sp. NH4 prod ([4]; day 5): 72 % of control
- TCD ([4]; day 5): 128 % of control
- VCD ([4]; day 5): 136 % of control
- Viabil. ([4]; day 5): 97%
- Sp. Gluc cons. ([4]; day 7): 62
- Sp. Lactate prod. ([4]; day 7): 57 % of control
- Sp. NH4 prod ([4]; day 7): 66 % of control
- TCD ([4]; day 7): 136 % of control
- VCD ([4]; day 7): 147 % of control
- Viabil. ([4]; day 7): 95%
- Sp. Gluc cons. ([4]; day 9): 71
- Sp. Lactate prod. ([4]; day 9): 65 % of control
- Sp. NH4 prod ([4]; day 9): 73 % of control
- TCD ([4]; day 9): 131 % of control
- VCD ([4]; day 9): 133 % of control
- Viabil. ([4]; day 9): 95%
- Total Cell Density TCD ([5]; day 0): 1.1 E5/ml
- Viabil. ([5]; day 0): 96%
- Viable Cell Density (VCD) ([5]; day 0): 1.0 E5/ml
- Total Cell Density TCD ([5]; day 3): 7.9 E5/ml
- Viabil. ([5]; day 3): 96%
- Viable Cell Density (VCD) ([5]; day 3): 7.6 E5/ml
- Total Cell Density TCD ([5]; day 5): 45.2 E5/ml
- Viabil. ([5]; day 5): 96%
- Viable Cell Density (VCD) ([5]; day 5): 43.3 E5/ml
- Total Cell Density TCD ([5]; day 7): 41.1 E5/ml
- Viabil. ([5]; day 7): 83%
- Viable Cell Density (VCD) ([5]; day 7): 34.3 E5/ml
- Total Cell Density TCD ([5]; day 9): 34.7 E5/ml
- Viabil. ([5]; day 9): 73%
- Viable Cell Density (VCD) ([5]; day 9): 25.2 E5/ml
